Measured values reported in US12691124B2, “Methods of controlling and improving brain health” (ICAHN SCHOOL OF MEDICINE AT MOUNT SINAI, priority 2019, dated 2026).
Values belong to the compound of their own block, whether it stands above or below them.

Columns and labels:
[1] = tested on: 3xTg mouse model; settings: prolonged JQ1 treatment; cited from earlier work
[2] = tested on: wild type and APP/PS1-21 mice; settings: cited from earlier work
[3] = tested on: CK-p25 mice; experiment: p25 (CK-p25) mouse model of Alzheimer's disease; assay type: in vivo
[4] = tested on: primary cortical neurons; experiment: Neuronal longevity in primary cortical neuron culture (LDH, propidium iodide, cleaved caspase 3); assay type: cell-based, mouse; settings: PLX5622 together with IBET858
From the text: Primary Cortical Neuron Culture. Embryonic day 18 (E18) timed-pregnant female mice were anesthetized with CO2 and sacrificed by cervical dislocation. In a dissection hood, 24-26 embryos per experiment were collected through an incision of the mother's abdomen, taken out of the amniotic sacs and decapitated in ice cold Hank's Balanced Salt Solution (HBSS). Using fine scissors and forceps, brains were rapidly dissected and the cortex cleared from meninges and isolated under a dissection microscope. Cortices were collected in ice cold HBSS and kept on ice until all embryos had been dissected. In a tissue culture hood, HBSS was removed and the cortex tissue digested by 0.25% Trypsin-EDTA for 12 minutes at 37° C., followed by DNase1 treatment for 10 minutes at 37° C. The tissue was dissociated by serial trituration with a 25 ml serological pipette, followed by trituration with 10 ml and 5 ml serological pipettes. Cell suspension was washed once with DMEM medium, supplemented with 10% FBS and 1% penicillin/streptomycin and passed through a […] cell strainer before counted on a hemocytometer. Single cells were seeded on poly-D-lysine (0.1 mg ml-1) coated wells at a density of 1×10^6 cells per well on a 12-well plate. Cells were grown in Neurobasal medium, complemented with B27 supplement, N2 supplement, and 0.5 mM L-glutamine and maintained at 37° C. in 5% CO2 for 1 week. Cultures were treated with DMSO (0.2%), I-BET858 (1 μM, 0.2% DMSO), BDNF (50 ng/ml), or BDNF+I-BET858 for 2 and 12 h on day 7 in vitro. Cultures were washed with phosphate-buffered saline (PBS) on ice and processed for RNA isolation using TRIzol/Chloroform extraction.
LDH Assay. LDH activity was measured using the Pierce LDH Cytotoxicity Assay Kit. Culture media was incubated with an equal volume of LDH master mix and incubated for 30 minutes at room temperature in the dark. After, the same volume of stop reagent was added and the absorbance was measured at 490 and 680 nm. Maximum LDH measurements were obtained by adding lysis buffer to release the total amount of LDH in the sample. LDH release is calculated as a percent of the maximum.
Propidium Iodide Assay. Propidium iodide (1 mg/ml, Life Technologies #P3566) was added to each culture well at a final concentration of 0.5 μg/ml. Cultures were incubated for 30 minutes at 37 degrees then washed with PBS. Cells were then fixed with 4% paraformaldehyde in PBS for 15 minutes at room temperature. After fixation, cells were washed with PBS and then mounted using mounting media containing DAPI.
In order to understand the effect of chronic BET inhibition on neuronal survival, primary cortical mouse neurons were cultured in the presence or absence of the brain permeable BET inhibitor IBET858 (1 μM). To quantify cell death over time, the levels of lactate dehydrogenase (LDH) were measured in culture media which is presumably released during cell death as the membranes become permeable. […] The observed decrease in LDH activity after BET inhibition occurs in a dose-dependent manner. LDH activity, which is an indirect measure of cell death, may be affected by other factors such as changes in metabolism or expression of the LDH genes. Therefore in order to confirm these findings, propidium iodide (PI) staining was used to directly quantify the number of dead neurons over time. This membrane impermeable dye increases in fluorescence 20-30 fold after intercalating DNA265. […] To give context to the magnitude of this effect on survival, this experiment was repeated with a direct comparison to the mTOR inhibitor, rapamycin (20 nM).

[5] = tested on: microglia; experiment: Microglia depletion by PLX in wild type mice; settings: mouse, in vivo
From the text: These models both have strong inflammatory components to their pathology; however it is important to understand the mechanism by which IBET858 improves symptoms. If the pathology is driven by microglial-mediated inflammation, it was hypothesized that depleting microglia from the brain should prevent neuronal degeneration and memory deficits as well. Therefore a pharmacological approach was used to deplete microglia in vivo by inhibiting the colony stimulating factor receptor 1 (CSF1R) which is required for microglial survival and kills 99% of microglia in one week in wild type mice. Elmore et al., “Colony-Stimulating Factor 1 Receptor Signaling is Necessary for Microglia Viability, Unmasking a Microglia Progenitor Cell in the Adult Brain,” Neuron 82:380-397 (2014), which is hereby incorporated by reference in its entirety.
First, the PLX5622-mediated mediated reduction in microglia numbers is not sufficient to reduce inflammatory gene expression to the level that not only allows neuronal survival but also normal function. Second, while IBET858 clearly dampens microglia-mediated inflammation, its neuroprotective effect cannot be solely attributed to microglia and may in fact be a combinatorial effect on other cell types in the brain.

[6] = tested on: BET proteins; settings: cited from earlier work
[7] = tested on: primary cortical neurons; experiment: Polar metabolite mass spectrometry in primary cortical neurons; assay type: cell-based, mouse; settings: acute exposure 24 h, 50 nM
Procedure: Mass Spectrometry. Cell culture plates (2e6 cells per well n=7-8 per group) were washed with 75 mM Ammonium bicarbonate, pH 7.4, warmed to 37 degrees. Plates were quenched on liquid nitrogen for 10 seconds and then placed on dry ice. 1 ml of 70% Ethanol in MS-grade water was warmed to 75 degrees and added to each well. Plates were incubated in a 75 degree water bath for 3 minutes, shaking gently every minute. After 3 minutes, plates were placed on dry ice and once cooled, supernatants were lyophilized using the speed vacuum and stored at −80 degrees. Samples were shipped on dry ice to Cellzome who processed the samples for mass spectrometry and performed the initial analysis annotating metabolites. A semi-quantitative approach was used which determines the metabolite levels relative to a control rather than absolute concentrations. All detected ions were used for statistical analysis regardless of how many samples they were detected. This allows for the identification of low-abundant metabolites that may be present in only a subset of samples.
If IBET858 is indeed decreasing metabolism as indicated, comprehensive metabolic changes after BET inhibition should be observed. Therefore, an unbiased analysis of polar metabolites via mass spectrometry was employed (FIGS. 12A-12C). Accordingly, the levels of 100-150 unique metabolites are changed by chronic BET inhibition in primary cortical neurons.

Structure (SMILES): Cc1sc2c(c1C)C(c1ccc(Cl)cc1)=N[C@@H](CC(=O)OC(C)(C)C)c1nnc(C)n1-2 [JQ1]
level of phosphorylated tau [1]: decreased
memory and learning deficits [1]: did not have any effect
cognitive deficits in APP/PS1-21 mouse model ([2]; APP/PS1-21): rescued cognitive deficits
memory, fear conditioning paradigm in wild type mice ([2]; wild type mice): enhanced memory

neuronal longevity after IBET858 on pharmacological depletion of microglia [4]: did not alter longevity
Structure (SMILES): COc1ncc(F)cc1CNc1ccc(Cc2c[nH]c3ncc(C)cc23)c(F)n1 [PLX5622]
number of microglia compared to wild-type controls ([3]; CK-p25 mice treated with PLX): twice the number of microglia
contextual recall (memory deficits) ([3]; PLX5622): made contextual recall worse
neuronal and synapse loss ([3]; PLX5622): prevented neuronal and synapse loss
microglia after PLX in wild type mice [5]: fully depleted

Structure (SMILES): Oc1ccc(C=Cc2cc(O)cc(O)c2)cc1 [Resveratrol, resveratrol]
inhibition of BET proteins [6]: weakly inhibit

Structure (SMILES): C=C(C)[C@H]1Cc2c(ccc3c2O[C@@H]2COc4cc(OC)c(OC)cc4[C@@H]2C3=O)O1 [Rotenone, reference compound]
metabolites changed [7]: 300-500 metabolites
